Experimental data from patent publication US12551532B2, “Long-acting amylin receptor agonists and uses thereof” (Eli Lilly and Company, priority 2021, dated 2026).
Starred links: 1 amine or outer side, 2 acyl side, 3 side chain; linkers in the order of their positions; H or OH if unused. Positions of bridges follow the written chain, without caps; N, C: chain ends. Non-standard residues stand in square brackets, D forms with d. Residues, ends and D or L forms follow the SMILES beside them. Groups on a side chain read outwards from the residue. *: point of attachment. C20 diacid = O=C(O)CCCCCCCCCCCCCCCCCCC(=O)*; γGlu = O=C(O)[C@H](CCC(=O)[*:2])N[*:1]; αMeL = CC(C)C[C@](C)(N)C(=O)O; Orn = NCCC[C@H](N)C(=O)O; CH2 = C([*:1])[*:2]

Assay: Body weight and body composition in diet-induced obese rats, 2-week study
Assay type: in vivo, Long Evan rats
Conditions: DIO rats, at 2 weeks vs initial
Method: Male Long Evan rats from Envigo RMS (Indianapolis, IN) at 14 weeks of age are put on a high fat diet (40% of kcal from fat, TD.95217; Envigo RMS, Indianapolis, IN) until 35-45 weeks old. Animals are individually housed in a temperature-controlled facility (75.0° F.; 23.9° C.) with a 12-hour reverse light/dark cycle (lights OFF at 10 AM) and free access to food and water. Body weights are recorded and body composition (fat mass) is determined using Quantitative Nuclear Magnetic Resonance Analysis (ECHO MRI, 3-1 Composition Analyzer; Echo Medical Systems, Houston, TX), followed by randomization into experimental groups (n=5). Rats are administered subcutaneous injections of vehicle or peptide (1 mL/kg) every three days (day 1, 4, 7, 10, and 13). Daily body weights are recorded and changes at end of treatment (day 14) are calculated as percentages versus pre-treatment weights (day 1). Body composition is determined on day 14, and changes in fat mass and fat-free mass (body weight−fat mass) are calculated from pre-treatment values as gram changes.

[1] = 100 nmol/kg SC every three days

CC[C@H](C)[C@H](NC(=O)[C@@H]1CCCN1C(=O)CNC(=O)[C@H](Cc1ccccc1)NC(=O)[C@H](CC(N)=O)NC(=O)[C@H](Cc1c[nH]cn1)NC(=O)[C@H](CO)NC(=O)[C@H](CO)NC(=O)[C@H](CCCNC(=N)N)NC(=O)[C@@H](NC(=O)[C@H](CC(C)C)NC(=O)[C@H](Cc1ccccc1)NC(=O)[C@H](CCC(=O)O)NC(=O)[C@H](C)NC(=O)[C@](C)(CC(C)C)NC(=O)[C@H](CCCN)NC(=O)CNC(=O)[C@@H](NC(=O)[C@H](C)NC(=O)[C@@H]1CSCSC[C@H](NC(=O)[C@@H](N)CCCCNC(=O)CC[C@H](NC(=O)CC[C@H](NC(=O)CCCCCCCCCCCCCCCCCCC(=O)O)C(=O)O)C(=O)O)C(=O)N[C@@H](CCC(=O)O)C(=O)N[C@@H]([C@@H](C)O)C(=O)N[C@@H](C)C(=O)N[C@@H]([C@@H](C)O)C(=O)N1)[C@@H](C)O)C(C)C)C(=O)N[C@@H](CC(C)C)C(=O)N1CCC[C@H]1C(=O)N1CCC[C@H]1C(=O)N[C@H](C(=O)N[C@@H](CCC(=O)O)C(=O)N[C@H](C(=O)NCC(=O)N[C@@H](CO)C(=O)N[C@@H](CC(N)=O)C(=O)N[C@H](C(=O)N[C@@H](Cc1ccc(O)cc1)C(N)=O)[C@@H](C)O)C(C)C)[C@@H](C)O [Compound VIII] (H-K([γGlu-γGlu-C20 diacid])CETATCATG[Orn][αMeL]AEFLVRSSHNFGPILPPTEVGSNTY-NH2; linker 2-7 via CH2)
Δ Body Weight (1 nmol/kg SC every three days): −6.0%
Δ Fat Mass (1 nmol/kg SC every three days): -36.6 g
Δ Fat-Free Mass (1 nmol/kg SC every three days): -4.7 g
Δ Body Weight (10 nmol/kg SC every three days): −9.0%
Δ Fat Mass (10 nmol/kg SC every three days): -54.3 g
Δ Fat-Free Mass (10 nmol/kg SC every three days): -7.2 g
Δ Body Weight [1]: −11.5%
Δ Fat Mass [1]: -56.4 g
Δ Fat-Free Mass [1]: -26.9 g
